Measured values from patent US12180139B2, “Method for preparing aminoalkanoic acid derivative containing biphenyl group” (AMTIXBIO CO., LTD., priority 2019, dated 2024).

Legend:
B. cereus (+) = assay: Antibacterial MIC test (CLSI); format: cell-based; conditions: MHB liquid medium, 37° C., 24 hours
Protocol: (§1) The MIC test was conducted in accordance CLSI guidelines. […] As a positive control, Nofloxacin and Vancomycin were used.

B. coagulans (+) = assay: Antibacterial MIC test (CLSI); format: cell-based; conditions: MHB liquid medium, 37° C., 24 hours
Protocol: as §1

B. subtilis (+) = assay: Antibacterial MIC test (CLSI); format: cell-based; conditions: MHB liquid medium, 37° C., 24 hours
Protocol: as §1

E. coli (−) = assay: Antibacterial MIC test (CLSI); format: cell-based; conditions: MHB liquid medium, 37° C., 24 hours
Protocol: as §1

L. monocytogenes (+) = assay: Antibacterial MIC test (CLSI); format: cell-based; conditions: MHB liquid medium, 37° C., 24 hours
Protocol: as §1

M. luteus (+) = assay: Antibacterial MIC test (CLSI); format: cell-based; conditions: MHB liquid medium, 37° C., 24 hours
Protocol: as §1

P. acnes (+) = assay: Antibacterial MIC test (CLSI); format: cell-based; conditions: MHB liquid medium, 37° C., 24 hours
Protocol: as §1

S. aureus enterica (−) = assay: Antibacterial MIC test (CLSI); format: cell-based; conditions: MHB liquid medium, 37° C., 24 hours
Protocol: as §1

S. aureus (+) = conditions: MHB liquid medium, 37° C., 24 hours
Protocol: (§2) The antibacterial activities against Gram-positive bacteria, Gram-negative bacteria or multi-drug resistant bacteria were evaluated for the compounds of the present invention. The MIC test was conducted in accordance CLSI guidelines. E. coli(−), P. aeruginosa(−), and S. enterica(−) were used as Gram-negative bacteria, B. cereus(+), B. subtilis(+), B. coagulans(+), L. monocytogenes(+), M. luteus(+), P. acnes(+), S. epidermidis(+), and S. aureus(+) were used as Gram-positive bacteria. Methicillin-resistant Staphylococcus aureus (MRSA) was used as multi-drug resistant bacteria. The bacterial cells were incubated until the OD600 of the single colonies reached 0.1. […] Subsequently, bacterial cells were incubated at 37° C. for 24 hours, and then the MICs (μg/ ? ) were determined by visual reading and optical density detection at 600 nm (OD600). As a positive control, Nofloxacin and Vancomycin were used.

S. epidermidis (+) = conditions: MHB liquid medium, 37° C., 24 hours
Protocol: as §2

MRSA = assay: Antibacterial MIC test (CLSI); format: cell-based, Methicillin-resistant Staphylococcus aureus; conditions: MHB liquid medium, 37° C., 24 hours
Protocol: as §1

C. neoformans = conditions: RPMI1640 broth, 35° C., 72 hours, visual reading; expressed as a range value
Protocol: (§3) An in vitro antifungal susceptibility test was performed in accordance with the US Clinical and Laboratory Standards Institute (CLSI) guidelines to measure the degree of antifungal activity of the compounds synthesized in the Preparation Examples against opportunistic pathogenic fungi. […] The MIC value (μg/ ? ) is expressed as a range value. Specifically, Candida species and Cryptococcus neoformans were incubated in a Sabouraud dextrose agar (SDA) (Sigma-Aldrich) solid medium for 24 and 48 hours, respectively to obtain single colonies. The obtained single colonies were suspended in 0.85% physiological saline to prepare fungal cell suspension (1 to 5×10^6 cells/ ? ). Fungal cells 2000-fold diluted in RPMI1640 broth (Sigma-Aldrich) were seeded on 96-well plates (5×10^2 to 2.5×10^3 cells/ ? , 195 ? /well). Serial two-fold dilutions (128, 64, 32, 16, 8, 4, 2, 1, and 0.5 μg/ ? ) of compounds were prepared by diluting the compounds synthesized according to the above preparation examples. Then, 5 ? from each dilution was added to the well of the 96-well plate containing fungal cell suspension to give a final suspension of 200 ? per well. […] As a positive control, amphotericin B (AMB), which is highly toxic to the human body but is known as a representative antifungal agent, was used.

C. albicans = conditions: RPMI1640 broth, 35° C., 48 hours, visual reading; expressed as a range value
C. glabrata = conditions: RPMI1640 broth, 35° C., 48 hours, visual reading; expressed as a range value
Protocol: as §3

A. fumigatus = conditions: visual reading; expressed as a range value

| SMILES | MIC B. cereus (+) (B. cereus (+)) [µg/mL] | MIC B. coagulans (+) (B. coagulans (+)) [µg/mL] | MIC B. subtilis (+) (B. subtilis (+)) [µg/mL] | MIC E. coli (−) (E. coli (−)) [µg/mL] | MIC L. monocytogenes (+) (L. monocytogenes (+)) [µg/mL] | MIC M. luteus (+) (M. luteus (+)) [µg/mL] | MIC P. acnes (+) (P. acnes (+)) [µg/mL] | MIC S. aureus enterica (−) (S. aureus enterica (−)) [µg/mL] | MIC S. aureus (+) (S. aureus (+)) [µg/mL] | MIC S. epidermidis (+) (S. epidermidis (+)) [µg/mL] | MIC MRSA (MRSA) [µg/mL] | MIC (μg/mL) C. neoformans (C. neoformans) | MIC (μg/mL) C. albicans (C. albicans) | MIC (μg/mL) C. glabrata (C. glabrata) | MIC (μg/mL) A. fumigatus (A. fumigatus) |
| --- | --- | --- | --- | --- | --- | --- | --- | --- | --- | --- | --- | --- | --- | --- | --- |
| CCCCC(N)C(=O)NCCc1ccc(-c2ccc(C(F)(F)F)cc2)cc1.Cl (racemic) [Compound 78, (R)/(S)-2-amino-N-(2-(4′-(trifluoromethyl)-[1,1′-biphenyl]-4-yl)ethyl)hexanamide hydrochloride] | 16 | <4 | <4 | 8 | <4 | 8 | >64 | 16 | 8 | 8 | 8 | 2~8 μg/mL | 4~16 μg/mL | 4~16 μg/mL | 4~16 μg/mL |
| CCC(N)C(=O)Nc1ccc(-c2ccc(Cl)c(Cl)c2)cc1.Cl (racemic) [Compound 29, (R)/(S)-2-amino-N-(3′,4′-dichloro-[1,1′-biphenyl]-4-yl)butanamide hydrochloride] | 8 | <4 | <4 | 8 | <4 | <4 | <4 | 8 | <4 | <4 | <4 | 2~8 μg/mL | 4~16 μg/mL | 4~16 μg/mL | 4~16 μg/mL |
| CCC(N)C(=O)NCCc1ccc(-c2ccc(OC(F)(F)F)cc2)cc1.Cl (racemic) [Compound 79, (R)/(S)-2-amino-N-(2-(4′-(trifluoromethoxy)-[1,1′-biphenyl]-4-yl)ethyl)butanamide hydrochloride] | 64 | <4 | 16 | 16 | 16 | 16 | 16 | 32 | 16 | 8 | 16 | 8~32 μg/mL | 8~32 μg/mL | 8~32 μg/mL | 8~32 μg/mL |
| CCCC(NC)C(=O)Nc1ccc(-c2ccc(Cl)c(Cl)c2)cc1.Cl (racemic) [Compound 34, (R)/(S)-N-(3′,4′-dichloro-[1,1′-biphenyl]-4-yl)-2-(methylamino)pentanamide hydrochloride] | 8 | <4 | <4 | 8 | <4 | <4 | <4 | 32 | <4 | <4 | <4 | 2~8 μg/mL | 4~16 μg/mL | 8~32 μg/mL | 8~32 μg/mL |
| CCCCC(NC)C(=O)NCCc1ccc(-c2ccc(C(F)(F)F)cc2)cc1.Cl (racemic) [Compound 88, (R)/(S)-2-(methylamino)-N-(2-(4′-(trifluoromethyl)-[1,1′-biphenyl]-4-yl)ethyl)hexanamide hydrochloride] | >64 | <4 | 32 | 8 | <4 | >64 | <4 | >64 | 8 | 8 | 8 | 2~8 μg/mL | 4~16 μg/mL | 4~16 μg/mL | 4~16 μg/mL |
| CCC(NC)C(=O)Nc1ccc(-c2ccc(Cl)c(Cl)c2)cc1.Cl (racemic) [Compound 33, (R)/(S)-N-(3′,4′-dichloro-[1,1′-biphenyl]-4-yl)-2-(methylamino)butanamide hydrochloride] | 16 | <4 | 8 | 8 | <4 | <4 | <4 | 16 | 8 | <4 | <4 | 4~16 μg/mL | 8~32 μg/mL | 8~32 μg/mL | 8~32 μg/mL |
| CCCCC(NC)C(=O)Nc1ccc(-c2ccc(Cl)c(Cl)c2)cc1.Cl (racemic) [Compound 35, (R)/(S)-N-(3′,4′-dichloro-[1,1′-biphenyl]-4-yl)-2-(methylamino)hexanamide hydrochloride] | <4 | <4 | <4 | <4 | >64 | <4 | <4 | 64 | 8 | <4 | <4 | 0.5~4 μg/mL | 0.5~4 μg/mL | 0.5~4 μg/mL | 0.5~4 μg/mL |
| CCCCC(N)C(=O)NCc1ccc(-c2ccc(Cl)c(Cl)c2)cc1.Cl (racemic) [Compound 46, (R)/(S)-2-amino-N-((3′,4′-dichloro-[1,1′-biphenyl]-4-yl)methyl)hexanamide hydrochloride] | 16 | 4 | 8 | 32 | 8 | 8 | 8 | 32 | 8 | 8 | 8 | 0.5~4 μg/mL | 2~8 μg/mL | 2~8 μg/mL | 2~8 μg/mL |
| CCCCC(N)C(=O)NCCc1ccc(-c2ccc(OC(F)(F)F)cc2)cc1.Cl (racemic) [Compound 81, (R)/(S)-2-amino-N-(2-(4′-(trifluoromethoxy)-[1,1′-biphenyl]-4-yl)ethyl)hexanamide hydrochloride] | 16 | <4 | 4 | 8 | <4 | <4 | 8 | 16 | 8 | 8 | 8 | 2~8 μg/mL | 2~8 μg/mL | 2~8 μg/mL | 2~8 μg/mL |
| CCCCC(NC)C(=O)NCCc1ccc(-c2ccc(OC(F)(F)F)cc2)cc1.Cl (racemic) [Compound 91, (R)/(S)-2-(methylamino)-N-(2-(4′-(trifluoromethoxy)-[1,1′-biphenyl]-4-yl)ethyl)hexanamide hydrochloride] | 16 | <4 | 16 | 8 | <4 | <4 | <4 | 16 | 8 | <4 | 8 | 2~8 μg/mL | 4~16 μg/mL | 4~16 μg/mL | 4~16 μg/mL |
